From article PMC9057582, “HIF inhibitor 32-134D eradicates murine hepatocellular carcinoma in combination with anti-PD1 therapy” (The Journal of Clinical Investigation, 2022) come the findings set out here.

Molecules are shown by their SMILES.

The subject of test [1] is HIF target genes in Hep3B cells. Briefly: RT-qPCR of endogenous HIF target gene expression in Hep3B cells. Format: cell-based, human. The text has this: Based on this hit, we synthesized analogs in which either halogen substitutions to the indole groups were altered or the central thiazole was replaced by imidazole, isoxazole, oxadiazole, oxazole, pyrazinone, pyridazine, pyrazine, pyrazole, pyridine, thiadiazole, triazine, or triazole. […] We focused on analyzing the effect of the bis-bromoindole thiazole 32-134D and the bis-indole thiadiazole 33-063 on endogenous HIF target gene expression in Hep3B cells. […] For comparison, we tested the effect of PT2385, which inhibited EPO, NDRG1, ANGPTL4, and VEGFA expression but had no effect on CA9, which is consistent with its HIF-2–selective mechanism of action ([44]). None of the compounds had any effect on RPL13A expression, which is neither induced by hypoxia nor regulated by HIFs (Supplemental Figure 2D).
Human Hep3B and mouse Hepa1-6 cells were purchased from ATCC and grown in high-glucose (4.5 mg/mL) Dulbecco’s modified Eagle’s medium supplemented with 10% (vol/vol) fetal bovine serum and 1% penicillin/streptomycin at 37°C in a 5% CO2/95% air incubator (Supplemental Table 6). Human cell line identity was authenticated by analysis of short tandem repeats, and all cell lines were maintained mycoplasma free, using PCR-based assays conducted at the Johns Hopkins University Genetic Resources Core Facility (JHU GRCF). Cells were subjected to hypoxia in a controlled atmosphere chamber (PLAS Labs) with ambient gas mixture containing 1% O2 and 5% CO2.
RNA was extracted using TRIzol Reagent. Quantitative real-time PCR was conducted using SYBR Green PCR Master Mix and reactions were run using a Bio-Rad thermal cycler. Primer sequences and reagent sources are listed in Supplemental Table 5. The mRNA expression of target genes was normalized to the expression of 18S rRNA and the fold change (FC) was calculated based on the threshold cycle (Ct) as FC = 2^–Δ(ΔCt), where ΔCt = Cttarget gene – Ct18S rRNA and Δ(ΔCt) = ΔCttreatment – ΔCtcontrol. For RNA-seq, total RNA was isolated and treated with DNase (Qiagen). The JHU GRCF High-Throughput Sequencing facility prepared libraries and performed RNA-seq. The RNA-seq data were processed and interpreted using Genialis Expressions software (https://www.genialis.com/expressions/). An automated data analysis pipeline run in the Genialis platform consisted of the following: Sequence quality checks were performed on raw and trimmed reads with FastQC. Bbduk was used to trim adapters and filter out poor quality reads. Trimmed reads were then mapped to the STAR index (ENSEMBL 100) reference genome using the STAR ([93]) aligner. Gene expression levels were quantified with featureCounts ([94]), and differential gene expression analyses were performed with DESeq2 ([95]). […] Differential expression was determined with an FDR of less than 0.05 and mRNA FC of greater than 1.5 to identify hypoxia-induced genes and genes inhibited by 32-134D. Data used in this study have been deposited in the NCBI Gene Expression Omnibus database (GEO GSE195997).
Supplemental Figure 2. Effect of 32-134D on gene expression in Hep3B cells. (A-D) Hep3B cells were exposed to 20% O2 in the presence of vehicle (first bar; no fill) or 1% O2 in the presence of: vehicle (blue bar) or the indicated concentration of 32-134D (bars with red fill) or 33-063 (bars with green fill), or PT2385 (bars with brown fill) for 24 hours and the indicated mRNAs were quantified by reverse transcription and quantitative real-time PCR (qPCR). Data are presented as mean + SEM (n = 3). *p < 0.05 vs white; **p < 0.01 vs blue (ANOVA with Bonferroni post-test). […]
(G-H) Analysis of HIF-1a (G) and HIF-2a (H) […]
mRNA expression in Hep3B cells exposed to vehicle or 32-134D at 20% or 1% O2 for 24

The subject of test [2] is Hep3B tumor xenograft. The experiment in a line: Analysis of Hep3B xenograft tumors (immunoblot, RT-qPCR, ELISA, CD31 immunohistochemistry). It is filed as in vivo, nude (nu/nu) mice. The text has this: Figure 2 Effect of 32-134D on Hep3B tumor xenograft growth and vascularization. (A) Female nude mice received a subcutaneous injection of […] Hep3B cells. When tumors reached a volume of 150 mm^3 (designated treatment day 1), the mice were randomized to receive a daily intraperitoneal injection of 32-134D at a dose of 0 (blue), 20 (black), 40 (red), or 80 (green) mg/kg. Data are presented as mean tumor volume (± SEM; n = 4 each). **P < 0.01, ***P < 0.001 (ANOVA with Bonferroni’s post hoc test). (B) Gross pathology of tumors harvested from vehicle-treated (top panel) and 32-134D–treated (bottom panel) mice. (C) Nuclear extracts prepared from tumors were assayed by immunoblotting using antibodies against the indicated proteins. (D) Total RNA was isolated from tumor tissue and analyzed by RT-qPCR using primers specific for the indicated mRNAs and results (mean ± SEM, n = 4) were normalized to the mean value for tumors from vehicle-treated mice. (E) ELISA for the indicated proteins was performed using aliquots of tumor lysates (mean ± SEM; n = 3–4 tumors each). *P < 0.05 (Mann-Whitney test). (F) Formalin-fixed and paraffin-embedded tumor sections were analyzed by immunohistochemistry using an antibody against CD31 to identify vascular endothelial cells. Scale bar: 100 μm. The total CD31^+ vessel area per field was quantified using ImageJ (mean ± SEM; n = 4 tumors with 5 sections per tumor). *P < 0.05 (Student’s t test).
Intratumoral HIF-1β protein levels were not affected by treatment with 32-134D (Supplemental Figure 5E).
Female nude mice (NCI Athymic NCr-nu/nu) and male C57L mice were purchased from Charles River and The Jackson Laboratory, respectively. Hep3B (8 × 10^6) and Hepa1-6 (1 × 10^7) cells were resuspended in PBS and Matrigel (1:1, vol/vol) and implanted subcutaneously in 6- to 8-week-old mice, and tumor volume was calculated as V = abc × 0.52. For Hep3B tumor studies, once tumors reached 100 to 150 mm^3, mice were randomized into groups to receive daily intraperitoneal injection of either 32-134D or vehicle only (20% PEG-400, 10% Cremophor EL, 10% ethanol in PBS). For Hepa1-6 tumors, mice were randomized to receive treatment once tumors became palpable (tumor eradication experiment) or reached a volume of 200 mm^3 (harvesting of tumors for flow cytometry and analysis of RNA and protein expression). Tumors were harvested 4 hours after the last treatment (see Supplemental Table 6 for reagent sources).
Tumor samples were fixed in 10% formalin in phosphate buffer for 24 hours and placed in PBS the following day for paraffin embedding and sectioning. Anti-CD31 immunohistochemical staining, hematoxylin and eosin counterstaining, and whole-slide scanning were performed by NDB Bio (www.ndbbio.com).
Tumors were homogenized in ice-cold PBS supplemented with 1% Triton X-100 and PIs, centrifuged at 10,000g for 20 minutes to pellet debris, and the supernatant was collected for ELISA using commercial kits (Supplemental Table 6). Optical density was obtained at 450 nm (corrected for readings at 570 nm) using the VICTOR Nivo plate reader. Sample protein concentration was calculated by linear regression from a standard curve.
For orientation: Immunoblotting shows a protein as a band on a membrane.

On to `Brc1ccc2c(-c3csc(-c4c[nH]c5c(Br)cccc45)n3)c[nH]c2c1` [Compound 32-134D], for which, in test [1] (Hep3B cells, 1% O2, 24 hours), the “hypoxia-induced ANGPTL4, VEGFA, NDRG1 and EPO mRNA expression” value was “significantly inhibited”; the “hypoxia-induced CA9 mRNA expression (activated by HIF-1 only)” value is on record as “significantly inhibited”. The “HIF-1α or HIF-2α mRNA expression” value in test [1] (Hep3B, 24 hours) was “no effect”. Besides, the “VEGFA, EPO, SDF-1α and SCF protein in tumor lysates” value in test [2] (ELISA, P < 0.05) is listed as “significantly decreased expression”. Also, the “tumor mRNA expression of ANGPTL4, EPO, PGF, CD73, PDL1, VEGFA, SDF-1, SCF” value in test [2] (RT-qPCR, P < 0.05) is recorded as “significant decrease”. Further, in test [2] (immunoblot), the “intratumoral HIF-1β protein levels” value was “not affected”. Moreover, the “intratumoral HIF-1α and HIF-2α protein expression” value in test [2] (immunoblot of tumor lysates) was “almost complete loss”. The “CD31+ blood vessel area in tumors” value in test [2] (immunohistochemistry, P < 0.05) is given as “significantly decreased blood vessel area”.
